How the values were obtained:
[1] = target: Human Cbl-b (residues 40-426) (Homo sapiens (Human), UniProt Q13191); assay: Cbl-b SPR assay; format: binding; conditions: for Fold of selectivity: C-cbl SPR Kd vs Cbl-b SPR Kd; for Kd: SPR, 20° C.
Outline: (§1)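 Captured protein (1300-1500 RU for both isoforms) was probed in multi-cycle kinetics with 6 concentrations in 2-fold dilution, 60 s contact, 40 μl/min, dissociation 120-1200 s, double-referenced. Kinetic and affinity parameters came from a 1:1 binding fit. For slow off-rates, kd was set independently by a chaser-based method.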

Cbl-b = Cbl-b (Homo sapiens (Human), UniProt Q13191); assay: Cbl-b LCK Ub TR-FRET assay (Cbl-b Lck HTRF); format: biochemical; conditions: for IC50: Cbl-b LCK Ub TR-FRET, Example 121; for (fold-selectivity) Cbl-b and C-Cbl Selectivity: ratio C-cbl Lck HTRF IC50 / Cbl-b Lck HTRF IC50
Sequence of Cbl-b (Q13191 40-426): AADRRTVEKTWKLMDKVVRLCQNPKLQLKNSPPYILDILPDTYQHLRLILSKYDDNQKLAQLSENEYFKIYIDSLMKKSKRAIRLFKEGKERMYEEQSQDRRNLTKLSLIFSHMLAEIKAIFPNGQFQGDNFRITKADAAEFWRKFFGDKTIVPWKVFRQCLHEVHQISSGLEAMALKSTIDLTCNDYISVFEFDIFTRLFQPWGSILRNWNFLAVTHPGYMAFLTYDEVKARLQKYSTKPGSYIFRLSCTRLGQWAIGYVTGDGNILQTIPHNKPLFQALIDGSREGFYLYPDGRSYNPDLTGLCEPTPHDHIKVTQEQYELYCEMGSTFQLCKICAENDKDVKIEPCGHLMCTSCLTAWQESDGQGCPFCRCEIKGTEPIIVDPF
Outline: (§2)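 Signal is read once the detection mix has stood 20 min at ambient temperature. Curves are anchored by DMSO as maximum and by omission of LCK as minimum.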

c-Cbl (residues 47-435) = c-Cbl (residues 47-435) (Homo sapiens (Human), UniProt P22681); assay: c-Cbl SPR assay; format: binding; conditions: 20° C.
Sequence of c-Cbl (residues 47-435) (P22681 47-435): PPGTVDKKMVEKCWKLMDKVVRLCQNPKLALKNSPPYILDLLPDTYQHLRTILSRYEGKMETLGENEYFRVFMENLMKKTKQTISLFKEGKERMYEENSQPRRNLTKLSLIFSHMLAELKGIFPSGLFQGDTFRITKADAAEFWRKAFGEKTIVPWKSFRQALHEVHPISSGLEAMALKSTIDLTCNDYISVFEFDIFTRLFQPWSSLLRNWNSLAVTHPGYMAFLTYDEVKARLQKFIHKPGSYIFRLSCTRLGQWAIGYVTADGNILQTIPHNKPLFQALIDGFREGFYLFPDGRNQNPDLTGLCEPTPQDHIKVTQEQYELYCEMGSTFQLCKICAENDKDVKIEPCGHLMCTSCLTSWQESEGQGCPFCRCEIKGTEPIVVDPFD
Outline: as §1

c-Cbl = c-Cbl (Homo sapiens (Human), UniProt P22681); assay: C-Cbl LCK Ub TR-FRET assay (C-cbl Lck HTRF); format: biochemical
Sequence of c-Cbl (P22681 47-435): as above
Outline: as §2

Sequence of Human Cbl-b (residues 40-426) (Q13191 40-426): as the sequence (Q13191 40-426) above

Fold of selectivity [1] [×] | Kd [1] [nM] | IC50 (Cbl-b) [nM] | (fold-selectivity) Cbl-b and C-Cbl Selectivity (Cbl-b) [x] | Kd (c-Cbl (residues 47-435)) [nM] | IC50 (c-Cbl) [nM] | Compound
7.8 | 6.2 | 14 | 5.3 | 48 | 74 | CO[C@H]1C[C@](c2cccc(N3Cc4c(cc(CNCC5(CO)CCC5)cc4C(F)(F)F)C3=O)c2)(c2nncn2C)C1 [Compound 489, 6-((((1-(hydroxymethyl)cyclobutyl)methyl)amino)methyl)-2-(3-((1r,3r)-3-methoxy-1-(4-methyl-4H-1,2,4-triazol-3-yl)cyclobutyl)phenyl)-4-(trifluoromethyl)isoindolin-1-one]
14 | 32 | 55 | 5.0 | 480 | 270 | CO[C@H]1C[C@](c2cccc(N3Cc4c(cc(CN5CCCCCC5)cc4C(F)(F)F)C3=O)c2)(c2nncn2C)C1 [Compound 490, 6-(azepan-1-ylmethyl)-2-(3-((1r,3r)-3-methxoy-1-(4-methyl-4H-1,2,4-triazol-3-yl)cyclobutyl)phenyl)-4-(trifluoromethyl)isoindolin-1-one]
17 | 2.9 | 8.4 | 4.3 | 48 | 36 | CO[C@H]1C[C@](c2cccc(N3Cc4c(cc(CNCCOC(F)F)cc4C(F)(F)F)C3=O)c2)(c2nncn2C)C1 [Compound 491, 6-(((2-(difluoromethoxy)ethyl)amino)methyl)-2-(3-((1r,3r)-3-methoxy-1-(4-methyl-4H-1,2,4-triazol-3-yl)cyclobutyl)phenyl)-4-(trifluoromethyl)isoindolin-1-one]
15 | 12 | 14 | 6.2 | 180 | 87 | CO[C@H]1C[C@](c2cccc(N3Cc4c(cc(CN[C@H]5[C@@H]6COC[C@@H]65)cc4C(F)(F)F)C3=O)c2)(c2nncn2C)C1 [Compound 492, 6-(((1R,5S,6r)-3-oxabicyclo[3.1.0]hexan-6-ylamino)methyl)-2-(3-((1r,3R)-3-methoxy-1-(4-methyl-4H-1,2,4-triazol-3-yl)cyclobutyl)phenyl)-4-(trifluoromethyl)isoindolin-1-one]
7.8 | 18 | 28 | 8.5 | 140 | 230 | COCCC1(NCc2cc3c(c(C(F)(F)F)c2)CN(c2cccc([C@]4(c5nncn5C)C[C@H](OC)C4)c2)C3=O)CCC1 [Compound 493, 2-(3-((1r,3r)-3-methoxy-1-(4-methyl-4H-1,2,4-triazol-3-yl)cyclobutyl)phenyl)-6-(((1-(2-methoxyethyl)cyclobutyl)amino)methyl)-4-(trifluoromethyl)isoindolin-1-one]
11 | 1.8 | 8.3 | 3.1 | 20 | 25 | CO[C@H]1C[C@](c2cccc(N3Cc4c(cc(CNC5CC(C(F)F)C5)cc4C(F)(F)F)C3=O)c2)(c2nncn2C)C1 (stereo partly drawn) [Compound 494, 6-(((3-(difluoromethyl)cyclobutyl)amino)methyl)-2-(3-((1r,3r)-3-methoxy-1-(4-methyl-4H-1,2,4-triazol-3-yl)cyclobutyl)phenyl)-4-(trifluoromethyl)isoindolin-1-one]
12 | 8.5 | 18 | 6.7 | 110 | 110 | COCC1(NCc2cc3c(c(C(F)(F)F)c2)CN(c2cccc([C@]4(c5nncn5C)C[C@H](OC)C4)c2)C3=O)CCC1 [Compound 495, 2-(3-((1r,3r)-3-methoxy-1-(4-methyl-4H-1,2,4-triazol-3-yl)cyclobutyl)phenyl)-6-(((1-(methoxymethyl)cyclobutyl)amino)methyl)-4-(trifluoromethyl)isoindolin-1-one]
12 | 6.1 | 17 | 5.2 | 73 | 87 | CO[C@H]1C[C@](c2cccc(N3Cc4c(cc(CNCC5(CF)CC5)cc4C(F)(F)F)C3=O)c2)(c2nncn2C)C1 [Compound 496, 6-((((1-(fluoromethyl)cyclopropyl)methyl)amino)meth-yl)-2-(3-((1r,3r)-3-methoxy-1-(4-methyl-4H-1,2,4-triazol-3-yl)cyclobutyl)phenyl)-4-(trifluoromethyl)isoindolin-1-one]
14 | 1.9 | 5.2 | 4.7 | 26.6 | 24 | CO[C@H]1C[C@](c2cccc(N3Cc4c(cc(CNC5CC(C)(F)C5)cc4C(F)(F)F)C3=O)c2)(c2nncn2C)C1 (stereo partly drawn) [Compound 497, 6-(((3-fluoro-3-methylcyclobutyl)amino)methyl)-2-(3-((1r,3r)-3-methoxy-1-(4-methyl-4H-1,2,4-triazol-3-yl)cyclobutyl)phenyl)-4-(trifluoromethyl)isoindolin-1-one]
16 | 0.8 | 4.1 | 3.6 | 13 | 15 | CO[C@H]1C[C@](c2cccc(N3Cc4c(cc(CNC5CC6CC6C5)cc4C(F)(F)F)C3=O)c2)(c2nncn2C)C1 (stereo partly drawn) [Compound 498, 6-((bicyclo[3.1.0]hexan-3-ylamino)methyl)-2-(3-((1r,3r)-3-methoxy-1-(4-methyl-4H-1,2,4-triazol-3-yl)cyclobutyl)phenyl)-4-(trifluoromethyl)isoindolin-1-one]
19 | 3.7 | 16 | 5.0 | 79 | 78 | CO[C@H]1C[C@](c2cccc(N3Cc4c(cc(CNCCC5CCC5(F)F)cc4C(F)(F)F)C3=O)c2)(c2nncn2C)C1 (stereo partly drawn) [Compound 499, 6-(((2-(2,2-difluorocyclobutyl)ethyl)amino)methyl)-2-(3-((1r,3r)-3-methoxy-1-(4-methyl-4H-1,2,4-triazol-3-yl)cyclobutyl)phenyl)-4-(trifluoromethyl)isoindolin-1-one]
12 | 10 | 16 | 5.3 | 120 | 85 | CO[C@H]1C[C@](c2cccc(N3Cc4c(cc(CNC5C[C@@H]6C[C@H]5CO6)cc4C(F)(F)F)C3=O)c2)(c2nncn2C)C1 (stereo partly drawn) [Compound 500, 6-((2-oxabicyclo[2.2.1]heptan-5-ylamino)methyl)-2-(3-((1r,3r)-3-methoxy-1-(4-methyl-4H-1,2,4-triazol-3-y)cyclobutyl)phenyl)-4-(trifluoromethyl)isoindolin-1-one]
16 | 4.6 | 11 | 4.8 | 81 | 52 | CO[C@H]1C[C@](c2cccc(N3Cc4c(cc(CNCC5(C)CC5(F)F)cc4C(F)(F)F)C3=O)c2)(c2nncn2C)C1 (stereo partly drawn) [Compound 501, 6-((((2,2-difluoro-1-methylcyclopropyl)methyl)amino)methyl)-2-(3-((1r,3r)-3-methoxy-1-(4-methyl-4H-1,2,4-triazol-3-yl)cyclobutyl)phenyl)-4-(trifluoromethyl)isoindolin-1-one]
14 | 5 | 9.4 | 4.1 | 69 | 39 | CO[C@H]1C[C@](c2cccc(N3Cc4c(cc(CN[C@@H]5C[C@H]5C)cc4C(F)(F)F)C3=O)c2)(c2nncn2C)C1 [Compound 502, 2-(3-((1r,3R)-3-methoxy-1-(4-methyl-4H-1,2,4-triazol-3-yl)cyclobutyl)phenyl)-6-((((1R,2R)-2-methylcyclopropyl)amino)methyl)-4-(trifluoromethyl)isoindolin-1-one]
22 | 2 | 8.5 | 3.0 | 44 | 26 | CO[C@H]1C[C@](c2cccc(N3Cc4c(cc(CNC[C@@H]5[C@@H](C)C5(F)F)cc4C(F)(F)F)C3=O)c2)(c2nncn2C)C1 [Compound 503, 6-(((((1S,3R)-2,2-difluoro-3-methylcyclopropyl)methyl)amino)methyl)-2-(3-((1r,3S)-3-methoxy-1-(4-methyl-4H-1,2,4-triazol-3-yl)cyclobutyl)phenyl)-4-(trifluoromethyl)isoindolin-1-one]
16 | 5.7 | 13 | 5.1 | 90 | 68 | CO[C@H]1C[C@](c2cccc(N3Cc4c(cc(CNC5CC6(C5)CC6F)cc4C(F)(F)F)C3=O)c2)(c2nncn2C)C1 (stereo partly drawn) [Compound 504, 6-(((1-fluorospiro[2.3]hexan-5-yl)amino)methyl)-2-(3-((1r,3r)-3-methoxy-1-(4-methyl-4H-1,2,4-triazol-3-yl)cyclobutyl)phenyl)-4-(trifluoromethyl)isoindolin-1-one]
